Experimental data from patent publication US10890591B2, “Methods and dose packs for monitoring medication adherence” (Synapse Biosciences, LLC, priority 2016, dated 2021).

Legend:
[1] = Multiple Marker Experiment 1: saliva samples, marker concentration by LC-MS/MS; conditions: human, in vivo;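 further: mean across four subjects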
Text: (§1) All other markers were obtained from commercial sources. Urine and saliva were collected prior to each day's dosing of marker confirming the presence or absence of markers before the experiment started. […] The presence of all 7 markers at day 8 would confirm that all markers were ingested in the previous 7 day one week period.
(§2) Healthy volunteers with no recent exposure to the markers who were not currently taking prescribed medications, OTC medications or vitamins and supplements were chosen. Exposure to the markers more than one month before starting the experiment was allowed and no dietary restrictions were required. Subjects were given a 7 day blister pack with markers sequenced in the order above. Subjects verbally confirmed they understood the urine and saliva collection procedures. Instructions printed on the marker blister pack instructed subjects to collect urine and saliva each morning before they took the daily dose of marker. They were also instructed to take the daily dose of marker close to the same time each day.

[2] = Multiple Marker Experiment 1: urine samples, adherent with all markers, marker concentration by LC-MS/MS; conditions: for Subject A, Urine Results / Subject B, Urine Results / Subject C, Urine Results / Subject D, Urine Results / Average of Urine Samples / concentration at 8 day: each marker dosed once; for course of urine levels relative to dosing: Experiment 1, days 1-8
Text: as §1, §2

[3] = Multiple Marker Experiment 2: urine samples, simulated non-adherence (one marker dose skipped per subject), LC-MS/MS; conditions: for Subject B, Urine Results / Subject C, Urine Results: collected before that day's dose; for Subject B, Urine Results / Subject C, Urine Results / concentration at 8 day: other markers dosed once; for course of urine levels relative to dosing: Experiment 2, days 1-8; for concentration at 8 day: Urine Results, Day 8 sample
[4] = Day 1 sample, collected before that day's dose, Experiment #1, adherent with all markers
[5] = Day 2 sample, collected before that day's dose, Experiment #1, adherent with all markers
[6] = Day 3 sample, collected before that day's dose, Experiment #1, adherent with all markers
[7] = Day 4 sample, collected before that day's dose, Experiment #1, adherent with all markers
[8] = Day 4 sample, collected before that day's dose, average of subjects A, B, C, D, Experiment 1
[9] = Day 5 sample, collected before that day's dose, Experiment #1, adherent with all markers
[10] = Day 5 sample, collected before that day's dose, average of subjects A, B, C, D, Experiment 1
[11] = Day 6 sample, collected before that day's dose, Experiment #1, adherent with all markers
[12] = Day 6 sample, collected before that day's dose, average of subjects A, B, C, D, Experiment 1
[13] = Day 7 sample, collected before that day's dose, Experiment #1, adherent with all markers
[14] = Day 7 sample, collected before that day's dose, average of subjects A, B, C, D, Experiment 1
[15] = Day 8 sample, Experiment #1, adherent with all markers
[16] = human, in vivo, Average of Urine Samples, Day 8 sample, average of subjects A, B, C, D, Experiment 1
[17] = human, in vivo, Subject A, Urine Results, Day 8 sample, Experiment #1, adherent with all markers
[18] = human, in vivo, Subject B, Urine Results, Day 8 sample, Experiment #1, adherent with all markers
[19] = Day 1 sample, Experiment #2, subject B skipped diphenhydramine on day 5
[20] = Day 1 sample, Experiment #2, subject C skipped Loperamide on day 2
[21] = Day 2 sample, Experiment #2, subject B skipped diphenhydramine on day 5
[22] = Day 2 sample, Experiment #2, subject C skipped Loperamide on day 2
[23] = Day 3 sample, Experiment #2, subject B skipped diphenhydramine on day 5
[24] = Day 3 sample, Experiment #2, subject C skipped Loperamide on day 2
[25] = Day 4 sample, Experiment #2, subject B skipped diphenhydramine on day 5
[26] = Day 4 sample, Experiment #2, subject C skipped Loperamide on day 2
[27] = Day 5 sample, Experiment #2, subject B skipped diphenhydramine on day 5
[28] = Day 5 sample, Experiment #2, subject C skipped Loperamide on day 2
[29] = Day 6 sample, Experiment #2, subject B skipped diphenhydramine on day 5
[30] = Day 6 sample, Experiment #2, subject C skipped Loperamide on day 2
[31] = Day 7 sample, Experiment #2, subject B skipped diphenhydramine on day 5
[32] = Day 7 sample, Experiment #2, subject C skipped Loperamide on day 2
[33] = human, in vivo, Subject B, Experiment #2, subject B skipped diphenhydramine on day 5
[34] = human, in vivo, Subject C, Experiment #2, subject C skipped Loperamide on day 2

COc1ccc2c(c1)[C@]13CCCC[C@@H]1[C@H](C2)N(C)CC3 [DXM, Dextromethorphan]
concentration at 1 day [1]: 0 ng/mL | concentration at 2 day [1]: 0 ng/mL | concentration at 3 day [1]: 0 ng/mL | concentration at 4 day [1]: 8.4 ng/mL | concentration at 5 day [1]: 1.52 ng/mL | concentration at 6 day [1]: 0.501 ng/mL | concentration at 7 day [1]: 0.439 ng/mL | concentration at 8 day [1]: 0.197 ng/mL | Subject A, Urine Results [2, 4]: 0 ng/mL | Subject B, Urine Results [2, 4]: 0 ng/mL | Subject C, Urine Results [2, 4]: 0 ng/m | Subject D, Urine Results [2, 4]: 0 ng/m | Subject A, Urine Results [2, 5]: 0 ng/mL | Subject B, Urine Results [2, 5]: 0 ng/mL | Subject C, Urine Results [2, 5]: 0 ng/m | Subject D, Urine Results [2, 5]: 0 ng/m | Subject A, Urine Results [2, 6]: 0 ng/mL | Subject B, Urine Results [2, 6]: 0 ng/mL | Subject C, Urine Results [2, 6]: 0 ng/m | Subject D, Urine Results [2, 6]: 0 ng/m | Subject A, Urine Results [2, 7]: 146 ng/mL | Subject B, Urine Results [2, 7]: 358 ng/mL | Subject C, Urine Results [2, 7]: 187 ng/m | Subject D, Urine Results [2, 7]: 641 ng/m | Average of Urine Samples [2, 8]: 333 ng/mL | Subject A, Urine Results [2, 9]: 11.7 ng/mL | Subject B, Urine Results [2, 9]: 31.4 ng/mL | Subject C, Urine Results [2, 9]: 15 ng/m | Subject D, Urine Results [2, 9]: 51.8 ng/m | Average of Urine Samples [2, 10]: 27.475 ng/mL | Subject A, Urine Results [2, 11]: 3.6 ng/mL | Subject B, Urine Results [2, 11]: 17.8 ng/mL | Subject C, Urine Results [2, 11]: 4.84 ng/m | Subject D, Urine Results [2, 11]: 4.53 ng/m | Average of Urine Samples [2, 12]: 7.6925 ng/mL | Subject A, Urine Results [2, 13]: 0.987 ng/mL | Subject B, Urine Results [2, 13]: 3.96 ng/mL | Subject C, Urine Results [2, 13]: 2.12 ng/m | Subject D, Urine Results [2, 13]: 2.61 ng/m | Average of Urine Samples [2, 14]: 2.419 ng/mL | Subject C, Urine Results [2, 15]: 0.787 ng/m | Subject D, Urine Results [2, 15]: 1.26 ng/m | course of urine levels relative to dosing [2]: zero before dosing, peaked the day after dosing and slowly decreased over time | concentration at 1 day ([2]; human, in vivo): 0 ng/mL | concentration at 2 day ([2]; human, in vivo): 0 ng/mL | concentration at 3 day ([2]; human, in vivo): 0 ng/mL | concentration at 8 day [2, 16]: 1.49 ng/mL | concentration at 8 day [2, 17]: 0.341 ng/mL | concentration at 8 day [2, 18]: 3.56 ng/mL | Subject B, Urine Results [3, 19]: 0 ng/mL | Subject C, Urine Results [3, 20]: 0 ng/mL | Subject B, Urine Results [3, 21]: 0 ng/mL | Subject C, Urine Results [3, 22]: 0 ng/mL | Subject B, Urine Results [3, 23]: 0 ng/mL | Subject C, Urine Results [3, 24]: 0 ng/mL | Subject B, Urine Results [3, 25]: 2640 ng/mL | Subject C, Urine Results [3, 26]: 377 ng/mL | Subject B, Urine Results [3, 27]: 181 ng/mL | Subject C, Urine Results [3, 28]: 40 ng/mL | Subject B, Urine Results [3, 29]: 14.7 ng/mL | Subject C, Urine Results [3, 30]: 1.35 ng/mL | Subject B, Urine Results [3, 31]: 16.6 ng/mL | Subject C, Urine Results [3, 32]: 1.11 ng/mL | course of urine levels relative to dosing [3]: zero before dosing, peaked the day after dosing and slowly decreased over time | concentration at 1 day ([3]; human, in vivo): 0 ng/mL | concentration at 2 day ([3]; human, in vivo): 0 ng/mL | concentration at 3 day ([3]; human, in vivo): 0 ng/mL | concentration at 8 day [3, 33]: 2.63 ng/mL | concentration at 8 day [3, 34]: 0.15 ng/mL

CN(C)C(=O)C(CCN1CCC(O)(c2ccc(Cl)cc2)CC1)(c1ccccc1)c1ccccc1 [Loperamide]
concentration at 1 day [1]: 0 ng/mL | concentration at 2 day [1]: 0 ng/mL | concentration at 3 day [1]: 0.431 ng/mL | concentration at 4 day [1]: 0.18 ng/mL | concentration at 5 day [1]: 0.257 ng/mL | concentration at 6 day [1]: 0.112 ng/mL | concentration at 7 day [1]: 0.0922 ng/mL | concentration at 8 day [1]: 0.0265 ng/mL | Subject A, Urine Results [2, 4]: 0 ng/mL | Subject B, Urine Results [2, 4]: 0 ng/mL | Subject C, Urine Results [2, 4]: 0 ng/m | Subject D, Urine Results [2, 4]: 0 ng/m | Subject A, Urine Results [2, 5]: 0 ng/mL | Subject B, Urine Results [2, 5]: 0 ng/mL | Subject C, Urine Results [2, 5]: 0 ng/m | Subject D, Urine Results [2, 5]: 0 ng/m | Subject A, Urine Results [2, 6]: 28.4 ng/mL | Subject B, Urine Results [2, 6]: 206 ng/mL | Subject C, Urine Results [2, 6]: 75.2 ng/m | Subject D, Urine Results [2, 6]: 110 ng/m | Average of Urine Samples ([2]; Day 3 sample, collected before that day's dose, average of subjects A, B, C, D, Experiment 1): 104.9 ng/mL | Subject A, Urine Results [2, 7]: 98.4 ng/mL | Subject B, Urine Results [2, 7]: 26.8 ng/mL | Subject C, Urine Results [2, 7]: 23.7 ng/m | Subject D, Urine Results [2, 7]: 100 ng/m | Average of Urine Samples [2, 8]: 62.225 ng/mL | Subject A, Urine Results [2, 9]: 31.6 ng/mL | Subject B, Urine Results [2, 9]: 6.94 ng/mL | Subject C, Urine Results [2, 9]: 7.11 ng/m | Subject D, Urine Results [2, 9]: 18.6 ng/m | Average of Urine Samples [2, 10]: 16.0625 ng/mL | Subject A, Urine Results [2, 11]: 24.1 ng/mL | Subject B, Urine Results [2, 11]: 5.5 ng/mL | Subject C, Urine Results [2, 11]: 5.02 ng/m | Subject D, Urine Results [2, 11]: 6.37 ng/m | Average of Urine Samples [2, 12]: 10.2475 ng/mL | Subject A, Urine Results [2, 13]: 0.035 ng/mL | Subject B, Urine Results [2, 13]: 2.33 ng/mL | Subject C, Urine Results [2, 13]: 2.41 ng/m | Subject D, Urine Results [2, 13]: 5.8 ng/m | Average of Urine Samples [2, 14]: 2.644 ng/mL | Subject C, Urine Results [2, 15]: 1.89 ng/m | Subject D, Urine Results [2, 15]: 2.71 ng/m | course of urine levels relative to dosing [2]: zero before dosing, peaked the day after dosing and slowly decreased over time | concentration at 1 day ([2]; human, in vivo): 0 ng/mL | concentration at 2 day ([2]; human, in vivo): 0 ng/mL | concentration at 8 day [2, 16]: 1.18 ng/mL | concentration at 8 day [2, 17]: 0.022 ng/mL | concentration at 8 day [2, 18]: 0.107 ng/mL | Subject B, Urine Results [3, 19]: 0 ng/mL | Subject C, Urine Results [3, 20]: 0 ng/mL | Subject B, Urine Results [3, 21]: 0 ng/mL | Subject C, Urine Results [3, 22]: 0 ng/mL | Subject B, Urine Results [3, 23]: 209 ng/mL | Subject C, Urine Results [3, 24]: 0 ng/mL | Subject B, Urine Results [3, 25]: 101 ng/mL | Subject C, Urine Results [3, 26]: 0 ng/mL | Subject B, Urine Results [3, 27]: 32.3 ng/mL | Subject C, Urine Results [3, 28]: 0 ng/mL | Subject B, Urine Results [3, 29]: 13.8 ng/mL | Subject C, Urine Results [3, 30]: 0 ng/mL | Subject B, Urine Results [3, 31]: 12.8 ng/mL | Subject C, Urine Results [3, 32]: 0 ng/mL | course of urine levels relative to dosing [3]: zero before dosing, peaked the day after dosing and slowly decreased over time | concentration at 1 day ([3]; human, in vivo): 0 ng/mL | concentration at 2 day ([3]; human, in vivo): 0 ng/mL | concentration at 8 day [3, 33]: 2.92 ng/mL | concentration at 8 day [3, 34]: 0 ng/mL
